Reference: patent US20120100109A1, “Method for increasing the replication of oncolytic HSVs in highly resistant tumor cells using mTOR pathway and PI3K inhibitors” (priority 2010, published 2012)

Key:
[1] = test system: DLD-1; assay: Baco-1 virus yield with or without rapamycin, DLD-1 cells; assay type: cell-based; conditions: DLD-1 (colon); Baco-1 yield, well with rapamycin / well without
[2] = test system: Hep3B; assay: Baco-1 virus yield with or without rapamycin, Hep3B cells; assay type: cell-based; conditions: Hep3B (liver); Baco-1 yield, well with rapamycin / well without
[3] = test system: MPanc-96; assay: Baco-1 virus yield with or without rapamycin, MPanc-96 cells; assay type: cell-based; conditions: MPanc-96 (pancreas); Baco-1 yield, well with rapamycin / well without
[4] = test system: HuH-7; assay: Baco-1 virus yield with or without rapamycin, HuH-7 cells; assay type: cell-based; conditions: HuH-7 (liver); Baco-1 yield, well with rapamycin / well without
[5] = test system: MDA-MB-435; assay: Baco-1 virus yield with or without rapamycin, MDA-MB-435 cells; assay type: cell-based; conditions: MDA-MB-435 (breast); Baco-1 yield, well with rapamycin / well without
[6] = test system: MCF-7; assay: Baco-1 virus yield with or without rapamycin, MCF-7 cells; assay type: cell-based, human; conditions: MCF-7 (breast); Baco-1 yield, well with rapamycin / well without
Method: (§1) A. EC9706 cells were either preincubated with rapamycin overnight (Pre-Inf) or incubated with the drug during the virus infection (During-Inf). They were then infected with Baco-1 at 0.1 pfu/cell and for 72 h. Fold increase in virus yield was calculated by dividing […]. […] B. MCF-7 and HeLa cells were infected with Baco-1 at 0.01 pfu/cell for 1 h. Then the cells were cultured in medium without (control) or with rapamycin at a concentration of 100 nM for 72 h before harvesting for virus titration.

[7] = test system: A549; assay: Baco-1 virus yield with or without rapamycin, A549 cells; assay type: cell-based; conditions: A549 (lung); Baco-1 yield, well with rapamycin / well without
[8] = test system: MDA-MB-231; assay: Baco-1 virus yield with or without rapamycin, MDA-MB-231 cells; assay type: cell-based; conditions: MDA-MB-231 (breast); Baco-1 yield, well with rapamycin / well without
[9] = test system: HCT116; assay: Baco-1 virus yield with or without rapamycin, HCT116 cells; assay type: cell-based; conditions: HCT116 (colon); Baco-1 yield, well with rapamycin / well without
[10] = test system: 293T; assay: Baco-1 virus yield with or without rapamycin, 293T cells; assay type: cell-based; conditions: 293T (kidney); Baco-1 yield, well with rapamycin / well without
[11] = test system: HeLa; assay: Baco-1 virus yield with or without rapamycin, HeLa cells; assay type: cell-based; conditions: HeLa (cervix); Baco-1 yield, well with rapamycin / well without
Method: as §1

[12] = test system: resistant tumor cells (EC9706, MCF-7, HeLa); assay: Baco-1 virus yield in resistant tumor cells with or without rapamycin (FIG. 2B, 2C); assay type: cell-based
Method: FIG. 2. […] Virus yield, as determined by plaque assay. Values represent the mean±SD of triplicate experiments.
as §1

[13] = test system: PANC-1; assay: Baco-1 virus yield with or without rapamycin, PANC-1 cells; assay type: cell-based; conditions: PANC-1 (pancreas); Baco-1 yield, well with rapamycin / well without
[14] = test system: HepG2; assay: Baco-1 virus yield with or without rapamycin, HepG2 cells; assay type: cell-based; conditions: HepG2 (liver); Baco-1 yield, well with rapamycin / well without
[15] = test system: EC9706 cells; assay: Yield of other HSVs (17+, FusOn-H2, ApE-Mir-3) in EC9706 cells with or without rapamycin (FIG. 4); assay type: cell-based, human; conditions: EC9706, 0.1 pfu/cell, rapamycin 100 nM
Source text: In another preferred embodiment of the present invention the potentiating effect of rapamycin on virus replication in highly resistant tumor cells is applied to other oncolytic HSVs, including strain 17 (17^+), a wild-type HSV-1, FusOn-H2, which is constructed from an HSV-2 by mutating the N-terminal region of the ICP 10 gene (Fu, et al., A Mutant Type 2 Herpes Simplex Virus Deleted for the Protein Kinase Domain of the ICP10 Gene Is a Potent Oncolytic Virus, Mol. Ther. 2006; 13:882-90), and ApE-Mir-3, an HSV-1-based oncolytic virus in which the glycoprotein H (gH) gene is controlled by tissue-specific microRNAs (miRNAs), including let-7 and mir-122. To that end, EC9706 cells are infected with these viruses at 0.1 pfu/cell for 1 h and then cultured the cells in media with or without rapamycin at a concentration of 100 nM. […] Replication of the HSV-2-based oncolytic virus, FusOn-H2, is increased by approximately 5-fold, similar to those seen with Baco-1.
EC9706 cells were infected with three other types of oncolytic HSVs, including FusOn-H2 (an oncolytic HSV derived from HSV-2, while Baco-1 was derived from HSV-1) and Ape-Mir3 (an oncolytic HSV specifically targets to hepatocellular carcinoma), at 0.1 pfu/cell and then incubated with medium without or with rapamycin (100 nM) for 72 h before harvesting for virus titration.

[16] = test system: EC9706 cells; assay: Baco-1 virus yield (plaque assay) with or without drug, EC9706 cells; assay type: cell-based, human
Method: as §1

[17] = test system: SW480; assay: Baco-1 virus yield with or without rapamycin, SW480 cells; assay type: cell-based; conditions: SW480 (colon); Baco-1 yield, well with rapamycin / well without
[18] = test system: highly resistant tumor cells (EC9706, MCF-7 and Hela cells); assay: Spread and replication of Baco-1 (GFP) in highly resistant tumor cell monolayers (FIG. 3B, 3C); assay type: cell-based; conditions: infected cells incubated with inhibitor
Source text: Because Baco-1 contains the Green Fluorescent Protein (GFP) gene, it is possible to visualize GFP expression during virus infection and thus monitor the spread of virus among tumor cells.
The effect of PI3K inhibitor, LY294002, on the replication of Baco-1 is examined in these cells. The three highly resistant tumor cell lines are infected with Baco-1, with or without the presence of LY294002 in the medium.
In the same experiment, three highly resistant tumor cells (EC9706, MCF-7 and Hela cells) are infected with Baco-1 at 0.01 pfu/cell and incubated without or with rapamycin at a concentration of 100 nM, or LY294002 at 50 μM concentration.

CO[C@H]1C[C@@H]2CC[C@@H](C)[C@@](O)(O2)C(=O)C(=O)N2CCCC[C@H]2C(=O)O[C@H]([C@H](C)C[C@@H]2CC[C@@H](O)[C@H](OC)C2)CC(=O)[C@H](C)/C=C(\C)[C@@H](O)[C@@H](OC)C(=O)[C@H](C)C[C@H](C)/C=C/C=C/C=C/1C [rapamycin]
Fold of change in virus yield [1]: 1.02 | Fold of change in virus yield [2]: 1.10 | Fold of change in virus yield [3]: 0.55 | Fold of change in virus yield [4]: 0.8 | Fold of change in virus yield [5]: 0.6 | Fold of change in virus yield [6]: 4.86 | Fold of change in virus yield [7]: 0.42 | Fold of change in virus yield [8]: 0.87 | Fold of change in virus yield [9]: 0.5 | Fold of change in virus yield [10]: 8.01 | Fold of change in virus yield [11]: 3.0 | Fold increase in virus yield ([12]; MCF-7 and HeLa cells, Baco-1 0.01 pfu/cell, rapamycin 100 nM, 72 h, FIG. 2B): 3-5 fold | Virus yield in the presence of rapamycin ([12]; resistant tumor cells, Baco-1, FIG. 2C): ~5×10^6 pfu | Fold of change in virus yield [13]: 0.99 | Fold of change in virus yield [14]: 1.04 | Increase in replication of ApE-Mir-3 [15]: 2.5 fold | Increase in replication of FusOn-H2 [15]: approximately 5 fold | Increase in virus yield of strain 17+ (wild-type HSV-1) [15]: more than 10 fold | Increase in yield of other oncolytic HSVs (pooled statement) ([15]; 72 h): 3-10 folds | Fold of change in virus yield ([16]; EC9706 (esophagus), Baco-1 yield, well with rapamycin / well without): 5.98 | Fold increase in virus yield ([16]; EC9706 cells, Baco-1 0.1 pfu/cell, 72 h, drug in the medium, FIG. 2A): ~6 fold | Fold of change in virus yield [17]: 5.31

CC[n+]1c(/C=C/N(C)c2ccccc2)n(-c2ccccc2)c2ccc(-c3nc4ccccc4s3)cc21.[I-] [Akt Inhibitor IV]
Effect on Baco-1 replication [18]: does not result in any significant increase in Baco-1 replication
